Reference: patent publication US20250230154A1, “COMPOUND HAVING SHP2 PROTEIN DEGRADING ACTIVITY, AND MEDICAL USES THEREOF” (UBIX THERAPEUTICS, INC., priority 2021, published 2025)

Experiments:
SHP2 protein [1] = molecular target: T1, SHP2 protein (Homo sapiens, UniProt Q06124); assay: Measurement of SHP2 protein degradation in KYSE-520 cells (western blotting); format: cell-based; design: endogenous in cells; conditions: 24 hours
T1 sequence (Q06124 1-593): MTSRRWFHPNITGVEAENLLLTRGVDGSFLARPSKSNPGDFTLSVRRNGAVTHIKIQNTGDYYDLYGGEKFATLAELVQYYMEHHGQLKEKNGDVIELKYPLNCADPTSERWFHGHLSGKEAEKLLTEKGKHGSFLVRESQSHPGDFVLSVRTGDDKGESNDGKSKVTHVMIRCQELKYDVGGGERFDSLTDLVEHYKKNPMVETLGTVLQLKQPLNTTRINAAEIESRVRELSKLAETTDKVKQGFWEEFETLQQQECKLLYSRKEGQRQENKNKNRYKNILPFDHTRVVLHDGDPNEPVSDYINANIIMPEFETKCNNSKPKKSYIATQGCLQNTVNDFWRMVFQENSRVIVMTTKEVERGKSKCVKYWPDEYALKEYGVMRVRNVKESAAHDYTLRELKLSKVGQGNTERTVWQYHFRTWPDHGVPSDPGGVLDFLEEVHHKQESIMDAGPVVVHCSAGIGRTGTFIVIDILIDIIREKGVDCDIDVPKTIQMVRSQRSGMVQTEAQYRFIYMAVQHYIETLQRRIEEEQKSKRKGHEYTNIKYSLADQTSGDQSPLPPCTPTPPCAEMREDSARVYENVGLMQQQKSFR
Procedure: Experimental Example 1: Measurement of SHP2 Protein Degradation in KYSE-520 Cells
KYSE-520 cells were treated with the synthesized Example compound, and the amount of SHP2 protein present in the cells was measured using western blotting detection. The protocol of the experiment conducted using KYSE-520 cells was as follows:
[Culture] KYSE-520 cells resuspended in RPMI1640 MEDIUM (Hyclone, SH30027.01) containing 5% FBS (Hyclone, SV30207.02) and 1% Penicillin-streptomycin (Welgene, LS 202-02) were seeded at a density of 2.5×10^5/well in a 6-well plate in an amount of 2 ml each and incubated for 2 days.
[Compound treatment] […] After 24 hours, cells were harvested. For the negative control group, DMSO diluted 1/10 to the media (3 mL DMSO+27 mL media) was added.
[Cell Lysis and Protein Quantification] Lysis buffer was prepared as follows: […] of RIPA buffer (Biosesang, RC2038-050-00)+0.5 mM PMSF (SIGMA, P7626)+1× Protease/Phosphatase Inhibitor (Cell signaling, 5872S) per well was added and placed on ice for 30 minutes (vortexing at 0 and 30 minutes, respectively). After sonication process (10 seconds pulse, 30 seconds rest, 5 cycles, 70% amplification), centrifugation (15000 g, 15 min, 4° C.) was performed, and then only the supernatant was taken and transferred to a new microtube. The sample was diluted ¼ with RIPA buffer in a 96-well plate, and mixed with A:B=50:1 of the BCA Protein Assay Kit (iNtRON, 21071). […] each of the mixture was left at 37° C. for 30 minutes, and cooled for 10 minutes. Then, absorbance was measured at 562 nm with the SYNERGY H1 microplate reader from BioTek. After making a sample by quantifying the protein with the measured value, boiling was performed at 70° C. for 10 minutes. At this time, the sample buffer used was a mixture of NuPAGE or Bolt 4× sample buffer (Invitrogen) and each 10× sample reducing agent according to the gel to be used, and RIPA buffer was used for protein dilution.
[Western blotting detection method] The same amount of sample was loaded on NuPAGE or Bolt Bis-tris 4-12% gradient gel and run (200 V, 35 minutes). It was transferred to 0.2 mm NC membrane with Trans-blot Turbo (BIO-RAD) (1.3 A constant, 25 V limit, 15 minutes). Blocking was performed at room temperature for 1 hour with Skim milk or Intercept Blocking Buffer (LI-COR, 927-60001):0.1% TBST=1:1. Anti SHPTP2 Mouse (1:500 in 5% Skim milk/TBST, size: 70 kDa, Santacruz sc-7384) was incubated overnight at 4° C., and Anti GAPDH Rabbit (1:2,000 in 5% BSA/0.2% TBST, size: 37 kDa, CST #2118) was incubated at room temperature for 1 hour 30 minutes or 3 hours. It was washed 3 times for 5 minutes each with 0.2% TBST washing buffer. Secondary antibody Anti-Rabbit IgG (1:5,000 in 5% Skim milk/0.2% TBST, CST), and IRDye® 680RD Goat anti-Rabbit IgG Secondary Antibody (1:10,000 in 5% BSA/0.2% TBST, LI-COR 926-68071) were incubated for 45 minutes on a rocker at room temperature. It was washed 5 times for 5 minutes each with 0.2% TBST washing buffer and detected with LI-COR's Odyssey. At this time, SHPTP2 was detected using SuperSignal West Pico PLUS Chemiluminescent Substrate, and house-keeping genes were also detected.
In the results of Table 4 below, Compounds 1-7, 13-19, and 21-26 are results in KYSE-520 cells, and the others are results in MV-4-11 cells.

SHP2 protein [2] = molecular target: T1, SHP2 protein; assay: Measurement of SHP2 protein degradation in MV-4-11 cells (western blotting); format: cell-based; design: endogenous in cells; host or cells: MV-4-11; conditions: MV-4-11 cells, 24 hours
In short: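 SHP2 protein levels were assessed by western blotting in MV-4-11 cells after a 24 hour compound treatment. Lysates were sonicated, centrifuged, normalized by BCA assay at 562 nm, run on Bis-tris 4-12% gels, transferred to NC membrane, probed with anti-SHPTP2 (70 kDa) and anti-GAPDH (37 kDa) antibodies, and detected on LI-COR Odyssey.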

Structure (SMILES): Cc1ncsc1-c1ccc(CNC(=O)[C@@H]2C[C@@H](O)CN2C(=O)[C@@H](NC(=O)C2(F)CC2)C(C)(C)C)c(OCCCC(=O)N2CCC(CCC(=O)Nc3cccc(Sc4cnc(N5CCC(C)(CN)CC5)cn4)c3Cl)CC2)c1 [Example 24, (2S,4R)—N-(2-(4-(4-(3-((3-((5-(4-(aminomethyl)-4-methylpiperidin-1-yl)pyrazin-2-yl)thio)-2-chlorophenyl)amino)-3-oxopropyl)piperidin-1-yl)-4-oxobutoxy)-4-(4-methylthiazol-5-yl)benzyl)-1-((S)-2-(1-fluorocyclopropane-1-carboxamido)-3,3-dimethylbutanoyl)-4-hydroxypyrrolidine-2-carboxamide]
- SHP2 degradation (%) 10 nM (SHP2 protein [1]): 15.1%
- SHP2 degradation (%) 100 nM (SHP2 protein [1]): 52.1%
- SHP2 degradation (%) 1000 nM (SHP2 protein [1]): 74.7%

Structure (SMILES): Cc1ncsc1-c1ccc(CNC(=O)[C@@H]2C[C@@H](O)CN2C(=O)[C@@H](NC(=O)C2(F)CC2)C(C)(C)C)c(OCCCC(=O)N2CCC(CC(=O)Nc3cccc(Sc4cnc(N5CCC(C)(CN)CC5)cn4)c3Cl)CC2)c1 [Example 23, (2S,4R)—N-(2-(4-(4-(2-((3-((5-(4-(aminomethyl)-4-methylpiperidin-1-yl)pyrazin-2-yl)thio)-2-chlorophenyl)amino)-2-oxoethyl)piperidin-1-yl)-4-oxobutoxy)-4-(4-methylthiazol-5-yl)benzyl)-1-((S)-2-(1-fluorocyclopropane-1-carboxamido)-3,3-dimethylbutanoyl)-4-hydroxypyrrolidine-2-carboxamide]
- SHP2 degradation (%) 10 nM (SHP2 protein [1]): 8.4%
- SHP2 degradation (%) 100 nM (SHP2 protein [1]): 44.3%
- SHP2 degradation (%) 1000 nM (SHP2 protein [1]): 64.2%

Structure (SMILES): Cc1ncsc1-c1ccc(CNC(=O)[C@@H]2C[C@@H](O)CN2C(=O)[C@@H](NC(=O)C2(F)CC2)C(C)(C)C)c(OCCCCN2CCC(C(=O)Nc3cccc(Sc4cnc(N5CCC(C)(CN)CC5)cn4)c3Cl)CC2)c1 [Example 2, N-(3-((5-(4-(aminomethyl)-4-methylpiperidin-1-yl)pyrazin-2-yl)thio)-2-chlorophenyl)-1-(4-(2-(((2S,4R)-1-((S)-2-(1-fluorocyclopropane-1-carboxamido)-3,3-dimethylbutanoyl)-4-hydroxypyrrolidine-2-carboxamido)methyl)-5-(4-methylthiazol-5-yl)phenoxy)butyl)piperidine-4-carboxamide]
- SHP2 degradation (%) 10 nM (SHP2 protein [1]): 23.3%
- SHP2 degradation (%) 100 nM (SHP2 protein [1]): 81.8%
- SHP2 degradation (%) 1000 nM (SHP2 protein [1]): 94.3%

Structure (SMILES): Cc1ncsc1-c1ccc(CNC(=O)[C@@H]2C[C@@H](O)CN2C(=O)[C@@H](NC(=O)C2CC2)C(C)(C)C)c(OCCCN2CCN(CC(=O)Nc3cccc(Sc4cnc(N5CCC(C)(CN)CC5)cn4)c3Cl)C(=O)C2)c1 [Example 80, (2S,4R)—N-(2-(3-(4-(2-((3-((5-(4-(aminomethyl)-4-methylpiperidin-1-yl)pyrazin-2-yl)thio)-2-chlorophenyl)amino)-2-oxoethyl)-3-oxopiperazin-1-yl)propoxy)-4-(4-methylthiazol-5-yl)benzyl)-1-((S)-2-(cyclopropanecarboxamido)-3,3-dimethylbutanoyl)-4-hydroxypyrrolidine-2-carboxamide]
- SHP2 degradation (%) 10 nM (SHP2 protein [2]): 83.1%
- SHP2 degradation (%) 100 nM (SHP2 protein [2]): 98.2%

Structure (SMILES): Cc1ncsc1-c1ccc(CNC(=O)[C@@H]2C[C@@H](O)CN2C(=O)[C@@H](NC(=O)C2(F)CC2)C(C)(C)C)c(OCCN2CCN(c3ncc(C(=O)Nc4cccc(Sc5cnc(N6CCC(C)(CN)CC6)cn5)c4Cl)cn3)CC2)c1 [Example 84, N-(3-((5-(4-(aminomethyl)-4-methylpiperidin-1-yl)pyrazin-2-yl)thio)-2-chlorophenyl)-2-(4-(2-(2-(((2S,4R)-1-((S)-2-(1-fluorocyclopropane-1-carboxamido)-3,3-dimethylbutanoyl)-4-hydroxypyrrolidine-2-carboxamido)methyl)-5-(4-methylthiazol-5-yl)phenoxy)ethyl)piperazin-1-yl)pyrimidine-5-carboxamide]
- SHP2 degradation (%) 10 nM (SHP2 protein [2]): 48.7%
- SHP2 degradation (%) 100 nM (SHP2 protein [2]): 97.1%

Structure (SMILES): Cc1ncsc1-c1ccc(CNC(=O)[C@@H]2C[C@@H](O)CN2C(=O)[C@@H](NC(=O)C2(F)CC2)C(C)(C)C)c(OCCN2CCN(c3ccc(C(=O)Nc4cccc(Sc5cnc(N6CCC(C)(CN)CC6)cn5)c4Cl)nn3)CC2)c1 [Example 85, N-(3-((5-(4-(aminomethyl)-4-methylpiperidin-1-yl)pyrazin-2-yl)thio)-2-chlorophenyl)-6-(4-(2-(2-(((2S,4R)-1-((S)-2-(1-fluorocyclopropane-1-carboxamido)-3,3-dimethylbutanoyl)-4-hydroxypyrrolidine-2-carboxamido)methyl)-5-(4-methylthiazol-5-yl)phenoxy)ethyl)piperazin-1-yl)pyridazine-3-carboxamide]
- SHP2 degradation (%) 10 nM (SHP2 protein [2]): 73%
- SHP2 degradation (%) 100 nM (SHP2 protein [2]): 97.5%

Structure (SMILES): COC(=O)[C@@H]1CN(C(=O)CC(=O)Nc2cccc(Sc3cnc(N4CCC(C)(CN)CC4)cn3)c2Cl)CCN1CCOc1cc(-c2scnc2C)ccc1CNC(=O)[C@@H]1C[C@@H](O)CN1C(=O)[C@@H](NC(=O)C1(F)CC1)C(C)(C)C [Example 66, (S)-methyl 4-(3-((3-((5-(4-(aminomethyl)-4-methylpiperidin-1-yl)pyrazin-2-yl)thio)-2-chlorophenyl)amino)-3-oxopropanoyl)-1-(2-(2-(((2S,4R)-1-((S)-2-(1-fluorocyclopropane-1-carboxamido)-3,3-dimethylbutanoyl)-4-hydroxypyrrolidine-2-carboxamido)methyl)-5-(4-methylthiazol-5-yl)phenoxy)ethyl)piperazine-2-carboxylate]
- SHP2 degradation (%) 10 nM (SHP2 protein [2]): 79%
- SHP2 degradation (%) 100 nM (SHP2 protein [2]): 98.1%

Structure (SMILES): Cc1ncsc1-c1ccc(CNC(=O)[C@@H]2C[C@@H](O)CN2C(=O)[C@@H](NC(=O)C2(F)CC2)C(C)(C)C)c(OCCN2CCN(C(=O)C(C)C(=O)Nc3cccc(Sc4cnc(N5CCC(C)(CN)CC5)cn4)c3Cl)CC2)c1 (stereo partly drawn) [Example 58, (2S,4R)—N-(2-(2-(4-(3-((3-((5-(4-(aminomethyl)-4-methylpiperidin-1-yl)pyrazin-2-yl)thio)-2-chlorophenyl)amino)-2-methyl-3-oxopropanoyl)piperazin-1-yl)ethoxy)-4-(4-methylthiazol-5-yl)benzyl)-1-((S)-2-(1-fluorocyclopropane-1-carboxamido)-3,3-dimethylbutanoyl)-4-hydroxypyrrolidine-2-carboxamide]
- SHP2 degradation (%) 10 nM (SHP2 protein [2]): 90.0%
- SHP2 degradation (%) 100 nM (SHP2 protein [2]): 99.9%
